Laboratory results reported in PMC10733349, “Synthesis and in-vitro anti-proliferative with antimicrobial activity of new coumarin containing heterocycles hybrids” (Scientific Reports, 2023).
Values after ≈ are worked out from the molar mass of the structure shown. Values joined by “and” are separate entries in the source; they are usually repeats but may differ in a detail not shown here. Equal entries are not always repeated.

Assays:
[1] = system: WISH cell line; assay: MTT safety assay on WISH normal cells; assay type: cell-based, Human; settings: 2 days
Text: (§1) Cell lines; WISH cell line (Human amnion-derived normal epithelial cells, CCL-25), MDA-MB-231 cell line (Human, mammary gland/breast adenocarcinoma, HTB-26), CaCo-2 cell line (Human Colorectal adenocarcinoma, epithelial cells, HTB-37), A549 cell line (Human Lung adenocarcinoma, epithelial cells, CCL-185) cell lines and HepG-2 (liver hepatocellular carcinoma, HEPG2, HB-8065) were obtained from ATCC, originally with license and serial numbers as mentioned.
(§2) The safety assays of coumarin hybrids on noncancerous cell lines and their anticancer effects on cancerous cells were gauged utilizing MTT-assay (Promega) in accordance with the instruction protocol. Starting from 60 to 200 µM, serial dilutions of coumarin hybrids were prepared in sterile DMSO to be treated cell lines at final concentrations 30 to 100 µM. The treated cells were incubated for 2 days, and the cellular cytotoxicity was detected by quantifying the solubilized formazan in DMSO at 570 nm. The inhibition concentration of 50 (IC50) was calculated from the cytotoxicity% curve using GraphPad prism 9.

[2] = system: CaCo-2 cell line; assay: MTT anti-proliferative assay, CaCo-2; assay type: cell-based, Human; settings: for IC50: CaCo-2, MTT, 2 days; for Selective index: SI = IC50 normal cells (WISH)/IC50 CaCo-2
Text: as §1, §2
(§3) Cancer cell selectivity index of Coumarin hybrids samples were measured as explained by, with a minor modification; (SI = IC50nc/IC50cc), where IC50nc refers to the value of IC50 of the coumarin hybrids compounds on normal cells, while IC50cc refers to the IC50 of the coumarin hybrids compounds on cancer cell line.

[3] = system: A549 cell line; assay: MTT anti-proliferative assay, A549; assay type: cell-based, Human; settings: for IC50: Homo sapiens, A549, 48 h, A549, MTT, 2 days; for Selective index: SI = IC50 normal cells (WISH)/IC50 A549
Text: as §1, §2, §3

[4] = system: MDA-MB-231 cell line; assay: MTT anti-proliferative assay, MDA-MB-231; assay type: cell-based, Human; settings: for IC50: MDA-MB-231, MTT, 2 days; for Selective index: SI = IC50 normal cells (WISH)/IC50 MDA-MB-231
Text: as §1, §2, §3

[5] = system: HepG-2; assay: MTT anti-proliferative assay, HepG-2; assay type: cell-based, human; settings: for IC50: HepG-2, MTT, 2 days; for Selective index: SI = IC50 normal cells (WISH)/IC50 HepG-2
Text: as §1, §2, §3

[6] = system: Staphylococcus aureus; assay: Antimicrobial microplate assay (MIC), S. aureus; assay type: cell-based; settings: Staph. aureus, two values per compound
Text: (§4) Microbial strains: Escherichia coli, pseudomonas aeruginosa, Staphylococcus aureus, Streptococcus mutans and Candida albicans were collected from the microbial culture collection of Biopharmaceutical Products Research Department, Genetic Engineering and Biotechnology Research Institute, SRTA-City, New Borg El-Arab city, Alexandria, Egypt.
(§5) The antimicrobial activity of coumarin hybrids samples were checked against different multiple drug resistant microorganisms (Escherichia coli, pseudomonas aeruginosa, Staphylococcus aureus and Streptococcus mutans and Candida albicans) using various concentrations (30 to 100 µM). An aliquot of 100.0 µl of each sample concentration was added to an equal volume of each microbial growth dilution (about 10^6 CFU/ml) and inoculated into 96 well plate. Furthermore, 100.0 µl of LB media was added to 100.0 µl of microbial growth to set as the negative control group. After that, the inoculated plates were incubated overnight at 37 °C then, the microbial turbidity was measured using automated ELIZA microplate reader (BINDER BIOTECK E LX 800) adjusted at 620 nm. The microbial inhibition percentage after treatments were quantified using the following equation:1 Inhibition percentage=A-A1/A0×100. where, A: the treatment group absorbance, A1: the blank absorbance, and A0: the control group absorbance.

[7] = system: Candida albicans; assay: Antimicrobial microplate assay (MIC), C. albicans; assay type: cell-based; settings: two values per compound
Text: as §4, §5

[8] = system: Escherichia coli; assay: Antimicrobial microplate assay (MIC), E. coli; assay type: cell-based; settings: two values per compound
Text: as §4, §5

[9] = system: Streptococcus mutans; assay: Antimicrobial microplate assay (MIC), S. mutans; assay type: cell-based; settings: two values per compound
Text: as §4, §5

[10] = system: pseudomonas aeruginosa; assay: Antimicrobial microplate assay (MIC), P. aeruginosa; assay type: cell-based
Text: as §4, §5

SMILES	IC50 ([1]; Homo sapiens, 48 h) [µM]	IC50 ([2]; Homo sapiens, Caco-2, 48 h) [µM]	Selective index [2]	IC50 [3] [µM]	Selective index [3]	IC50 ([4]; Homo sapiens, MDA-MB-231, 48 h) [µM]	Selective index [4]	IC50 ([5]; Homo sapiens, HepG2, 48 h) [µM]	Selective index [5]	MIC [6] [µM]	MIC ([6]; Staphylococcus aureus) [µM]	MIC ([7]; Candida albicans) [µM]	MIC [7]	MIC ([8]; Escherichia coli) [µM]	MIC [8] [µM]	MIC ([9]; Streptococcus mutans) [µM]	MIC [9]	also measured
O=C(NNc1ccnc2cc(Cl)ccc12)c1cc2ccccc2oc1=O [7a, N'-(7-Chloroquinolin-4-yl)-2-oxo-2H-chromene-3-carbohydrazide]	79.3	57.1	1.38 and 1.39	51.7	1.5 and 1.533	211	0.3752	75.4	1.051	31 (≈ 11.3 µg/mL)	30 (≈ 11 µg/mL)	62 (≈ 22.7 µg/mL)	61 µM (≈ 22.3 µg/mL)	29 (≈ 10.6 µg/mL)	28 (≈ 10.2 µg/mL)	248 (≈ 90.7 µg/mL)	246 µM (≈ 90 µg/mL)	melting point: 294 to 296 °C
O=C(NCCNc1ccnc2cc(Cl)ccc12)c1cc2ccccc2oc1=O [7b, N-(2-((7-Chloroquinolin-4-yl)amino)ethyl)-2-oxo-2H-chromene-3-carboxamide]	92.9	52.8	1.76 and 1.764	54.8	1.6 and 1.695	154	0.6038	88.7	1.049	22 (≈ 8.66 µg/mL)	20 (≈ 7.88 µg/mL)	28 (≈ 11 µg/mL)	27 µM (≈ 10.6 µg/mL)	45 (≈ 17.7 µg/mL)	43 (≈ 16.9 µg/mL)	100 (≈ 39.4 µg/mL)	103 µM (≈ 40.6 µg/mL)	IC50 [2]: 52.8 µM; melting point: 274 to 276 °C
O=C(NCCCNc1ccnc2cc(Cl)ccc12)c1cc2ccccc2oc1=O [7c, N-(3-((7-Chloroquinolin-4-yl)amino)propyl)-2-oxo-2H-chromene-3-carboxamide]	112	57.3	1.969	97.4	1.155	51	2.20 and 2.21	133	0.8456	29 (≈ 11.8 µg/mL)	28 (≈ 11.4 µg/mL)	31 (≈ 12.6 µg/mL)	30 µM (≈ 12.2 µg/mL)	125 (≈ 51 µg/mL)	126 (≈ 51.4 µg/mL)	152 (≈ 62 µg/mL)	150 µM (≈ 61.2 µg/mL)	IC50 [4]: 51 µM
O=C(Nc1ccc(Nc2ccnc3cc(Cl)ccc23)cc1)c1cc2ccccc2oc1=O [7d, N-(4-((7-Chloroquinolin-4-yl)amino)phenyl)-2-oxo-2H-chromene-3-carboxamide]	138	51.6	2.666	–	0.67 and 0.6789	103	1.351	82.8	1.67 and 1.671	30 (≈ 13.3 µg/mL)	29 (≈ 12.8 µg/mL)	62 (≈ 27.4 µg/mL)	60 µM (≈ 26.5 µg/mL)	46 (≈ 20.3 µg/mL)	45 (≈ 19.9 µg/mL)	130 (≈ 57.4 µg/mL)	132 µM (≈ 58.3 µg/mL)	IC50 [2]: 52 µM; IC50 [5]: 82.8 µM
O=C(Nc1ccc(Cc2ccc(Nc3ccnc4cc(Cl)ccc34)cc2)cc1)c1cc2ccccc2oc1=O [7e, N-(4-(4-((7-Chloroquinolin-4-yl)amino)benzyl)phenyl)-2-oxo-2H-chromene-3-carboxamide]	93.1	86.3	1.079	152	0.6129	70.5	1.32	351	0.2658	24 (≈ 12.8 µg/mL)	25 (≈ 13.3 µg/mL)	25 (≈ 13.3 µg/mL)	26 µM (≈ 13.8 µg/mL)	19 (≈ 10.1 µg/mL)	16 (≈ 8.51 µg/mL)	160 (≈ 85.1 µg/mL)	162 µM (≈ 86.2 µg/mL)	–
O=C(NCCNc1c2ccccc2nc2ccccc12)c1cc2ccccc2oc1=O [10b, N-(2-(Acridin-9-ylamino)ethyl)-2-oxo-2H-chromene-3-carboxamide]	–	–	–	–	–	–	–	–	–	3.2 (≈ 1.31 µg/mL)	3.2 to 66 (≈ 1.31 to 27 µg/mL)	–	–	–	–	3.2 to 66 (≈ 1.31 to 27 µg/mL)	5 µM and 5.5 µM	MIC [10]: 14.8 µM (≈ 6.06 µg/mL)
O=C(NCCCNc1c2ccccc2nc2ccccc12)c1cc2ccccc2oc1=O [10c, N-(3-(Acridin-9-ylamino)propyl)-2-oxo-2H-chromene-3-carboxamide]	56.7	–	0.77	130	–	109	0.8462	107	0.5533	–	–	–	–	–	–	–	–	IC50 [2]: 56.7 µM; IC50 ([2]; listed as 10): 145 µM; Selective index ([2]; listed as 10): 0.7785; MIC [10]: 15.4 µM (≈ 6.52 µg/mL); melting point: 261 to 263 °C
Cn1c2nc3ccccc3c-2c(NCCNC(=O)c2cc3ccccc3oc2=O)c2ccccc21 [13b, N-(2-((5-Methyl-5H-indolo[2,3, b]quinolin-11-yl)amino)ethyl)-2-oxo-2H-chromene-3-carboxamide]	–	–	–	–	–	–	–	–	–	–	–	–	0.0011 µM and 0.0014 µM	–	–	–	–	–
Cn1c2nc3ccccc3c-2c(NCCCNC(=O)c2cc3ccccc3oc2=O)c2ccccc21 [13c, N-(3-((5-methyl-5H-indolo[2,3-b]quinolin-11-yl)amino)propyl)-2-oxo-2H-chromene-3-carboxamide]	95.9	84.8	–	65	–	89.9	–	71	–	–	–	–	–	–	–	–	–	–
O=c1ccc2ccccc2o1 [Ct, coumarin]	176	99.5	1.701	260	0.6915	111	1.599	232	0.7613	63 (≈ 9.21 µg/mL)	62 (≈ 9.06 µg/mL)	30 (≈ 4.38 µg/mL)	29 µM (≈ 4.24 µg/mL)	59 (≈ 8.62 µg/mL)	58 (≈ 8.48 µg/mL)	240 (≈ 35.1 µg/mL)	241 µM (≈ 35.2 µg/mL)	–
COc1cccc2c1C(=O)c1c(O)c3c(c(O)c1C2=O)C[C@@](O)(C(=O)CO)C[C@@H]3O[C@H]1C[C@H](N)[C@H](O)[C@H](C)O1 [DOX, doxorubicin, reference compound]	1.76	2.91	0.6148	3.78	0.7653	0.655	1.954	1.18	1.653	–	–	–	–	–	–	–	–	–
O=C(O)c1cc2ccccc2oc1=O [compound 1, coumarin-3-carboxylic acid, reference compound]	334	1110	0.3027	351	0.9497	132	2.521	924	0.3617	8.5 (≈ 1.62 µg/mL)	8 (≈ 1.52 µg/mL)	10 (≈ 1.9 µg/mL)	9.8 µM (≈ 1.86 µg/mL)	20 (≈ 3.8 µg/mL)	21.76 (≈ 4.14 µg/mL)	17 (≈ 3.23 µg/mL)	16.65 µM (≈ 3.17 µg/mL)	IC50 [1]: 334 µM
